Tested on: NIH 3T3 cells transformed by the T24 activated human H-ras gene
Assay: Ras-Transformed Cell Phenotype Reversion Assay
Format: cell-based, mouse
Settings: NIH3T3; Table 8; T24 H-ras transformed NIH 3T3 cells; 72 hours; cell counts
Text: "Ras-Transformed Cell Phenotype Reversion Assay" Insertion of activated oncogenes such as the mutant ras gene into mouse NIH 3T3 cells converts the cells to a transformed phenotype. The cells become tumorigenic, display anchorage independent growth in semi-solid medium and lose contact inhibition. Loss of contact inhibition produces cell cultures which no longer form uniform monolayers. Rather, the cells pile up into multicellular nodules and grow to very high saturation densities in plastic tissue culture dishes. Agents such as protein farnesyl transferase inhibitors which revert the ras transformed phenotype restore the uniform monolayer growth pattern to cells in culture. This reversion is easily monitored by counting the number of cells in tissue culture plates. Transformed cells will achieve higher cell numbers than cells which have reverted to an untransformed phenotype. Compounds which revert the transformed phenotype should produce antitumor effects in tumors bearing ras gene mutations. Method Compounds are screened in tissue culture in NIH 3T3 cells transformed by the T24 activated human H-ras gene. Cells are seeded at an initial density of 200,000 cells per well (9.6 cm^2 surface area) in six-well cluster tissue culture plates. Test compounds are immediately added to 3.0 ml cell growth mediuim in a 3.0 μl volume of DMSO, with a final concentration of DMSO in the cell growth medium of 0.1%. […] Then the cells are detached in 1.0 ml trypsin-EDTA cell dissociation medium and counted on a Coulter particle counter. Measurements Cell numbers expressed as cells per well are measured using a Coulter Particle Counter. All cell counts were corrected for the initial cell input density by subtracting 200,000. Control cell counts=[cell counts from cells incubated with DMSO vehicle--200,000] Test compound cell counts=[cell counts from cells incubated with test compound--200,000]. [formula]

Row | SMILES | IC50 [nM]
1 | CCCOc1cccc(-c2cc(=O)n(C)c3ccc(C(c4ccc(Cl)cc4)n4ccnc4)cc23)c1 (racemic) [Compound 74, (±)-6-[(4-chlorophenyl)-1H-imidazol-1-ylmethyl]-1-methyl-4-(3-propoxyphenyl)-2(1H)-quinolinone ethanedioate (2:3).sesquihydrate] | 500
2 | COCC(c1ccc(Cl)cc1)(c1ccc2c(c1)c(-c1cccc(Cl)c1)cc(=O)n2C)n1ccnc1 (centres unmarked) [Compound 67] | 114
3 | CSCC(c1ccc(Cl)cc1)(c1ccc2c(c1)c(-c1cccc(Cl)c1)cc(=O)n2C)n1ccnc1 (centres unmarked) [Compound 69] | 500
4 | CN(C)CCn1c(=O)cc(-c2cccc(Cl)c2)c2cc(C(c3ccc(Cl)cc3)n3ccnc3)ccc21 (centres unmarked) [Compound 80] | 169

Molecular target: T1, Human farnesyl protein transferase (Homo sapiens, UniProt P49354+P49356)
T1 construct: were used as a source of human enzyme; endogenous in cells; host or cells: Kirsten virus transformed human osteosarcoma (KHOS) cells (ATCC), grown as monolayers or as solid tumors in nude mice; ammonium sulfate fraction and Q Sepharose pool
Assay: In Vitro Assay for Inhibition of Farnesyl Protein Transferase ([3H] Scintillation Proximity Assay)
Format: biochemical
Settings: Table 7; human enzyme from KHOS cells; biotinylated lamin B peptide substrate; 60 min, 37° C.; read-out: IC50 (concentration of test compound producing 50% inhibition of enzyme activity)
Description: In Vitro Assay for Inhibition of Farnesyl Protein Transferase Human farnesyl protein transferase was prepared essentially as described ([…] al., Methods: A Companion to Methods in Enzymology vol 1, 241-245, 1990). Kirsten virus transformed human osteosarcoma (KHOS) cells (American Type Culture Collection, Rockvill, Md., USA) grown as solid tumors in nude mice or grown as monolayer cell cultures were used as a source of human enzyme. Briefly, cells or tumors were homogenized in buffer containing 50 mM Tris, 1 mM EDTA, 1 mM EGTA and 0.2 mM phenylmethylsulfonylfluoride (pH 7.5). The homogenates were centrifuged 28,000× g for 60 min and the supernatants collected. A 30-50% ammonium sulfate […] prepared, and the resulting precipitate was resuspended in a small (10 to 20 ml) volume of dialysis buffer containing 20 mM Tris, 1 mM dithiothreitol and 20 μM ZnCl2. The ammonium sulfate fraction was dialyzed overnight against two changes of the same buffer. The dialyzed material was applied to a 10×1 cm Q Fast Flow Sepharose (Pharmacia LKB Biotechnology Inc., Piscataway, N.J., USA) which had been preequilibrated with 100 ml of dialysis buffer supplemented with 0.05M NaCl. The column was washed with an additional 50 ml of dialysis buffer plus 0.05M NaCl followed by a gradient from 0.05M to 0.25M NaCl prepared in dialysis buffer. The enzyme activity was eluted with a linear gradient of 0.25 to 1.0M NaCl prepared in the dialysis buffer. Fractions containing 4 to 5 ml volumes of column eluate were collected and analyzed for farnesyl protein transferase activity. Fractions with enzyme activity were pooled and supplemented with 100 μM ZnCl2. Enzyme samples were stored frozen at -70° C. The activity of farnesyl protein transferase was measured using the Farnesyl Transferase [^3 H] Scintillation Proximity Assay (Amersham International plc., England) under the conditions specified by the manufacturer. […] The reaction mixture was warmed to 37° C. The enzyme reaction was started by adding 20 μl of diluted human farnesyl protein transferase. […] Reactions were terminated by the addition of STOP/scintillation proximity bead reagent (Amersham). The reaction product [^3 H]-farnesyl-(Cys)-biotin lamin B peptide was captured on the streptavidin linked scintillation proximity bead. The amount of [^3 H]-farnesyl-(Cys)-biotin lamin B peptide synthesized in the presence or absence of test compounds was quantified as cpm by counting on a Wallac Model 1480 Microbeta Liquid Scintillation Counter. The cpm of product was considered to be farnesyl protein transferase activity. The protein farnesyl transferase activity observed in the presence of test compound was normalized to farnesyl transferase activity in the presence of 10% DMSO and expressed as per cent inhibition. […] W. Johnson Pharmaceutical Research Institue (Spring House, Pa., USA) on a VAX computer.

Row | SMILES | IC50 [nM]
5 | O=c1cc(-c2ccccc2)c2cc(C(c3ccccc3)n3ccnc3)ccc2[nH]1 (racemic) [Compound 1, (±)-6-[(1H-imidazol-1-yl)phenylmethyl]-4-phenyl-2(1H)-quinolinone] | 930
6 | O=C1CC(c2ccccc2)c2cc(C(c3ccc(Cl)cc3)n3ccnc3)ccc2N1 (racemic) [Compound 57, (±)-6-[(4-chlorophenyl)-1H-imidazol-1-ylmethyl]-3,4-dihydro-4-phenyl-2(1H)-quinolinone] | 1200
7 | O=c1cc(-c2ccccc2)c2cc(C(c3cccc(Cl)c3)n3ccnc3)ccc2[nH]1 (centres unmarked) [Compound 3] | 1400
8 | O=c1cc(-c2ccccc2)c2cc(C(c3ccc(F)cc3)n3ccnc3)ccc2[nH]1 (centres unmarked) [Compound 4] | 315
9 | O=c1cc(-c2ccc(Cl)cc2)c2cc(C(c3ccc(Cl)cc3)n3ccnc3)ccc2[nH]1 (centres unmarked) [Compound 11] | 320
10 | O=c1cc(-c2ccccc2Cl)c2cc(C(c3ccc(Cl)cc3)n3ccnc3)ccc2[nH]1 (centres unmarked) [Compound 12] | 3200
11 | CCCn1c(=O)cc(-c2ccccc2)c2cc(C(c3ccc(Cl)cc3)n3ccnc3)ccc21 (centres unmarked) [Compound 14] | 700
12 | CCOC(=O)Cn1c(=O)cc(-c2ccccc2)c2cc(C(c3ccc(Cl)cc3)n3ccnc3)ccc21 (centres unmarked) [Compound 17] | 230
13 | O=c1cc(-c2cccc(C(F)(F)F)c2)c2cc(C(c3ccc(Cl)cc3)n3ccnc3)ccc2[nH]1 (centres unmarked) [Compound 20] | 240
14 | Cc1ccc(C(c2ccc3[nH]c(=O)cc(-c4ccccc4)c3c2)n2ccnc2)cc1 (centres unmarked) [Compound 25] | 262
15 | Cc1ccccc1-c1cc(=O)[nH]c2ccc(C(c3ccc(Cl)cc3)n3ccnc3)cc12 (centres unmarked) [Compound 28] | 2200
16 | COc1ccc(CCn2c(=O)cc(-c3ccccc3)c3cc(C(c4ccc(Cl)cc4)n4ccnc4)ccc32)cc1 (centres unmarked) [Compound 29] | 2400
17 | O=c1cc(-c2ccccc2)c2cc(C(c3ccc(Cl)cc3Cl)n3ccnc3)ccc2[nH]1 (centres unmarked) [Compound 31] | 480
18 | O=c1cc(-c2ccccc2)c2cc(C(c3ccccc3Cl)n3ccnc3)ccc2[nH]1 (centres unmarked) [Compound 32] | 530
19 | COc1ccc(C(c2ccc3[nH]c(=O)cc(-c4ccccc4)c3c2)n2ccnc2)cc1 (centres unmarked) [Compound 33] | 850
20 | O=c1cc(-c2ccccc2)c2cc(C(c3ccc(Cl)c(Cl)c3)n3ccnc3)ccc2[nH]1 (centres unmarked) [Compound 34] | 600
21 | Cc1cncn1C(c1ccc(Cl)cc1)c1ccc2[nH]c(=O)cc(-c3ccccc3)c2c1 (centres unmarked) [Compound 49] | 300
22 | CC(c1ccc(Cl)cc1)(c1ccc2[nH]c(=O)cc(-c3ccccc3)c2c1)n1ccnc1 (centres unmarked) [Compound 58] | 270

Now from value to molecule:

Row | IC50 [nM] | SMILES
23 | 227 | O=c1cc(-c2ccc(Cl)c(Cl)c2)c2cc(C(c3ccc(Cl)cc3)n3ccnc3)ccc2[nH]1 (centres unmarked) [Compound 26]
24 | 220 | O=c1cc(-c2ccccc2)c2cc(C(c3ccc(Cl)cc3)n3ccnc3)ccc2n1Cc1ccccc1 (centres unmarked) [Compound 10]
25 | 193 | Cc1ccc(-c2cc(=O)[nH]c3ccc(C(c4ccc(Cl)cc4)n4ccnc4)cc23)cc1 (centres unmarked) [Compound 27]
26 | 180 | O=c1cc(-c2ccccc2)c2cc(C(c3ccc(Cl)cc3)n3ccnc3)ccc2[nH]1 (centres unmarked) [Compound 2]
27 | 150 | O=c1cc(-c2cccc(F)c2)c2cc(C(c3ccc(Cl)cc3)n3ccnc3)ccc2[nH]1 (centres unmarked) [Compound 21]
28 | 110 | Oc1cc(-c2ccccc2)c2cc(C(c3ccc(Cl)cc3)n3ccnc3)ccc2n1 (single isomer, unassigned; (-)) [Compound 7, (-)-(B)-6-[(4-chlorophenyl)-1H-imidazol-1-ylmethyl]-4-phenyl-2(1H)-quinolinone]
29 | 105 | O=c1cc(-c2ccccc2)c2cc(C(c3ccc(Cl)cc3)n3cnc(-c4ccccc4)c3)ccc2[nH]1 (centres unmarked) [Compound 47]
30 | 96 | O=c1cc(-c2cc(Cl)cc(Cl)c2)c2cc(C(c3ccc(Cl)cc3)n3ccnc3)ccc2[nH]1 (centres unmarked) [Compound 37]
31 | 70 | Cn1c(=O)cc(-c2ccccc2)c2cc(C(c3ccc(Cl)cc3)n3ccnc3)ccc21 (racemic) [Compound 8, (±)-6-[(4-chlorophenyl)-1H-imidazol-1-yl-methyl]-1-methyl-4-phenyl-2(1H)-quinolinone]
32 | 51 | CCCC(c1ccc(Cl)cc1)(c1ccc2c(c1)c(-c1cccc(Cl)c1)cc(=O)n2C)n1ccnc1 (centres unmarked) [Compound 65]
33 | 47 | COC(=O)C(CC(C)C)NC(=O)Cn1c(=O)cc(-c2ccccc2)c2cc(C(c3ccc(Cl)cc3)n3ccnc3)ccc21 (racemic) [Compound 39]
34 | 40 | Cc1cccc(-c2cc(=O)[nH]c3ccc(C(c4ccc(Cl)cc4)n4ccnc4)cc23)c1 (centres unmarked) [Compound 18]
35 | 34 | O=c1cc(-c2cccc(Cl)c2)c2cc(C(c3ccc(Cl)cc3)n3ccnc3)ccc2[nH]1 (centres unmarked) [Compound 13, 4-(3-chlorophenyl)-6-[(4-chlorophenyl)-1H-imidazol-1-ylmethyl]-2(1H)-quinolinone]
36 | 32 | COc1cccc(-c2cc(=O)[nH]c3ccc(C(c4ccc(Cl)cc4)n4ccnc4)cc23)c1 (centres unmarked) [Compound 24]
37 | 32 | Cc1cncn1C(c1ccc(Cl)cc1)c1ccc2[nH]c(=O)cc(-c3cccc(Cl)c3)c2c1 (centres unmarked) [Compound 53]
38 | 22 | Cn1c(=O)cc(-c2cccc(Cl)c2)c2cc(C(C)(c3ccc(Cl)cc3)n3ccnc3)ccc21 (racemic) [Compound 62, (±)-4-(3-chlorophenyl)-6-[1-(4-chlorophenyl)-1-(1H-imidazol-1-yl)ethyl]-1-methyl-2(1H)-quinolinone]
39 | 21 | O=c1cc(-c2cccc(Br)c2)c2cc(C(c3ccc(Cl)cc3)n3ccnc3)ccc2[nH]1 (centres unmarked) [Compound 30]
40 | 16 | Cn1c(=O)cc(-c2cccc(Cl)c2)c2cc(C(c3ccc(Cl)cc3)n3ccnc3)ccc21 (centres unmarked) [Compound 15, 4-(3-chlorophenyl)-6-[(4-chlorophenyl)-1H-imidazol-1-ylmethyl]-1-methyl-2(1H)-quinolinone]
41 | 13 | Cn1c(=O)cc(-c2ccccc2)c2cc(C(CO)(c3ccc(Cl)cc3)n3ccnc3)ccc21 (racemic) [Compound 59, (±)-6-[1-(4-chlorophenyl)-2-hydroxy-1-(1H-imidazol-1-yl)ethyl]-1-methyl-4-phenyl-2(1H)-quinolinone monohydrate]
